Assays:
Assay type in all cases: cell-based
Conditions in all cases: FGF1/heparin, 72 hours
[1] = tested on: BaF3 cells expressing FGFR3 S249C+V557L; assay: BaF3 cell proliferation, FGFR3 S249C+V557L
Excerpt: (§1) cDNA expressing FGFR3 mutants (S249C, S248C, Y375C, V555M, V555L, S249C+V555M, or S249C+V555L) were synthesized and cloned into pLVX Lenti-viral vector (Thermo Fisher). Viral particles were generated by lipofectamine transfection of LentiX 293T cells using Lenti-X packaging single shots following manufacturer's protocol (Clontech/Takara) and concentrated using Lenti-X concentrator and titer determined using Lenti-X p24 rapid titer kit (Clontech/Takara). BaF3 cells were transduced with virus at ˜0.3 MOI.
(§2) For cell proliferation assays, engineered BaF3/hFGFR3 cells grown in complete medium were washed and plated in IL-3-free culture media±5 μg/ml heparin and 1 nM human FGF1. Cells were plated out at 1×10^5 cells/well into 96-well plates, followed by the addition of 1:3 serially diluted antibodies as indicated in figures. After addition of antibodies, cells were incubated at 37° C. for 72 h followed by the addition of CellTiter-Glo™ (Promega) reagent. The luminescent signal was detected by Envision plate reader (PerkinElmer). Data was analyzed using Prism software (GraphPad). […]

[2] = tested on: BaF3 cells expressing FGFR3 S249C+V557M; assay: BaF3 cell proliferation, FGFR3 S249C+V557M
Excerpt: as §1, §2

[3] = tested on: BaF3 cells expressing FGFR3 V557L; assay: BaF3 cell proliferation, FGFR3 V557L
Excerpt: as §1, §2

[4] = tested on: BaF3 cells expressing FGFR3 V557M; assay: BaF3 cell proliferation, FGFR3 V557M
Excerpt: as §1, §2

AZD4547 [reference compound]
ineffective: effect on growth of BaF3 cells expressing FGFR3 S249C+V557L [1] | effect on growth of BaF3 cells expressing FGFR3 S249C+V557M [2] | effect on growth of BaF3 cells expressing FGFR3 V557L [3] | effect on growth of BaF3 cells expressing FGFR3 V557M [4]
